Data on one compound can be found in patent US20230270743A1, “USE OF BTK INHIBITORS IN THE TREATMENT OF DISEASES” (JIANGSU HENGRUI PHARMACEUTICALS CO., LTD., priority 2020, published 2023).

The assay concerns patients diagnosed with AQP4-IgG positive NMOSD. The assay is described as follows: Clinical research of the compound of formula (I) in treating neuromyelitis optica spectrum disorder (NMOSD). The assay is classed as in vivo, human. The method, then:
Average annualized relapse rate (ARR)=total number of episodes of subjects/(number of subjects*observation time).
Example 1: Clinical Research of the Compound of Formula (I) in Treating Neuromyelitis Optica Spectrum Disorder (NMOSD)
Tablets of the compound of formula (I), specification: 100 mg/tablet.
1) Male or female from 18 to 75 years old (including 18 and 75 years old);
2) Patients diagnosed with AQP4-IgG positive NMOSD according to the 2015 IPND diagnostic criteria;
3) Requirements for history of relapse: 2 or more relapses of NMOSD requiring rescue therapy within 1 year before baseline, the rescue therapy can include IV glucocorticoid, plasma exchange, and/or intravenous immune globulin (IVIG);
4) Subjects must have been on stable treatment (if any) for more than 1 month before starting test drug treatment, defined as follows: • the amount of immunosuppressant (such as tacrolimus, azathioprine, mycophenolate) and/or oral corticosteroid must be stable or in the process of reduction, and the acute phase rescue therapy (such as IV glucocorticoid, plasma exchange, and/or intravenous immunoglobulin) must be completed for more than 1 month.
The test drug was administered to the qualified subjects in the morning on an empty stomach, once a day, one tablet at a time, and 100 mg per tablet.
At present, the study has completed the enrollment of all 10 subjects, and the average annualized relapse rate (ARR=the total number of episodes of subjects/(number of subjects*observation time)) of all subjects before enrollment was 2.1. By now, an annualized relapse rate of 0.7 for existing subjects after baseline medication has been observed. A patient with a 7-year history of NMOSD had severe symptoms (unable to stand) before participating in the trial. […] At the 7th week of medication, the patient could walk more than 20 meters with assistance, and could substantially take care of themself.

In the case of `CC#CC(=O)N1CC[C@@H](n2cc(-c3ccc(Oc4c(F)cccc4F)cc3)c3c(N)n[nH]c(=O)c32)C1` [compound of formula (I), (R)-4-amino-1-(1-(but-2-ynoyl)pyrrolidin-3-yl)-3-(4-(2,6-difluorophenoxy)phenyl)-1,6-dihydro-7H-pyrrolo[2,3-d]pyridazin-7-one], the “annualized relapse rate (ARR) after baseline medication” value (AQP4-IgG positive NMOSD subjects (10 enrolled), 100 mg tablet once a day, morning, empty stomach, average ARR before enrollment was 2.1, interim (by now)) is given as 0.7. The mobility of patient entry (patient, 7-year history of NMOSD, unable to stand before trial, after 4 weeks of administration, could stand up and walk several steps with assistance) is “significantly improved mobility”. Besides, the “walking distance with assistance” value (same patient, at the 7th week of medication, could substantially take care of themself) is given as “more than 20 meters”.
